Data set [1] relates to Lung. Briefly: Protection against pulmonary hypertension in Sugen-Hypoxia (SuHx) rat model assessed as reduction in gamma-H2AX foci in lungs. The format is functional, tissue-based.
Data set [2] concerns Lung. Briefly: Protection against pulmonary hypertension in Sugen-Hypoxia (SuHx) rat model assessed as reduction in 53BP1 foci in lungs. The class given is functional, tissue-based.
For the next data set, the system named is Liver. Briefly: Hepatotoxicity in rats at 0.15 to 1.5 mg administered via instillation in to trachea. The format is toxicity. To be noted: rat, in vivo, inhaled_or_intranasal; dose 0.15-1.5 mg.

Molecules are shown by their SMILES. The source made the active and inactive calls. No cut-off for these calls is given here.

For the compound `CCc1oc2ccccc2c1C(=O)c1ccc(O)cc1` [BENZARONE], the result with Lung [1] and in the data set on Lung [2] was Active. Also, the Activity entry in the data set with Liver is recorded as “Non-Toxic”.

The values are drawn from ChEMBL document CHEMBL5050836, “Inhibitors of eya3-protein tyrosine phosphatase in dna damage repair signaling of pulmonary arterial hypertension” (2021).
